± gives the standard deviation of the averaged measurements.
Key:
Test in all cases: drug sensitivity score (DSS) (DSS score); higher = more sensitive (stronger growth inhibition); extreme values may be limits of the assay
[1] = test system: Ba/F3 P210-BCR-ABL1 RUNX1-/mut (mouse)
In short: (§1)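 Each value is a drug sensitivity score derived from CellTiter-Glo luminescence scaled between vehicle and positive-control wells. Mouse Ba/F3 clones, CRISPR/Cas9-edited at a target exon or edited controls, were seeded at 10,000 cells per well in RPMI with 10% FBS and treated for 72 h at 37 °C and 5% CO2. Compounds from a 528-compound library were tested at five concentrations over a 10,000-fold range, and scores were averaged over two replicates.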

[2] = test system: Ba/F3 P210-BCR-ABL1 RUNX1-/- (mouse)
In short: as §1

[3] = test system: Ba/F3 P210-BCR-ABL1 RUNX1wt/wt control (mouse)
In short: as §1

Compound: CO[C@H]1C[C@@H]2CC[C@@H](C)[C@@](O)(O2)C(=O)C(=O)N2CCCC[C@H]2C(=O)O[C@H]([C@H](C)C[C@@H]2CC[C@@H](OP(C)(C)=O)[C@H](OC)C2)CC(=O)[C@H](C)/C=C(\C)[C@@H](O)[C@@H](OC)C(=O)[C@H](C)C[C@H](C)/C=C/C=C/C=C/1C [Ridaforolimus]
- drug sensitivity score [1]: 15.7 ± 2.7
- drug sensitivity score [2]: 13.3 ± 3.8
- drug sensitivity score [3]: 0.15 ± 0.21

Compound: CC[C@H](CC#N)OC(=O)N[C@@H](C)c1cccc(NC(=O)Nc2ccc(-c3cnco3)c(OC)c2)c1 [AVN944]
- drug sensitivity score [1]: 24.95 ± 0.21
- drug sensitivity score [2]: 25.9 ± 0.42
- drug sensitivity score [3]: 21.7 ± 1.6

Compound: CN(C)C[C@@H]1CCn2cc(c3ccccc32)C2=C(C(=O)NC2=O)c2cn(c3ccccc23)CCO1 [Ruboxistaurin]
- drug sensitivity score [1]: 9.25 ± 2.2
- drug sensitivity score [2]: 9.7 ± 0.28
- drug sensitivity score [3]: 7.7 ± 0.99

Compound: CNC(=O)c1ccccc1Nc1nc(Nc2ccc3c(c2OC)CCC[C@H](N2CCN(CCO)CC2)C3)ncc1Cl
- drug sensitivity score [1]: 8.65 ± 0.21
- drug sensitivity score [2]: 8.75 ± 0.21
- drug sensitivity score [3]: 8 ± 0.14

Compound: O=C(CCCCCCNC(=O)c1cnc(N(c2ccccc2)c2ccccc2)nc1)NO [Rocilinostat]
- drug sensitivity score [1]: 9.05 ± 2.2
- drug sensitivity score [2]: 10.2 ± 1.5
- drug sensitivity score [3]: 6.25 ± 0.071

Compound: CC(=O)c1c(C)c2cnc(Nc3ccc(N4CCNCC4)cn3)nc2n(C2CCCC2)c1=O [Palbociclib]
- drug sensitivity score [1]: 8.85 ± 1.1
- drug sensitivity score [2]: 11.4 ± 1.3
- drug sensitivity score [3]: 2.25 ± 0.21

Compound: Cn1cncc1[C@@](N)(c1ccc(Cl)cc1)c1ccc2c(c1)c(-c1cccc(Cl)c1)cc(=O)n2C [Tipifarnib]
- drug sensitivity score [1]: 18.5 ± 2.3
- drug sensitivity score [2]: 22.4 ± 2.8
- drug sensitivity score [3]: 4.55 ± 0.071

Compound: C=CC(=O)N1CCC(Oc2cc3c(Nc4ccc(Cl)c(Cl)c4F)ncnc3cc2OC)CC1 [Poziotinib]
- drug sensitivity score [1]: 0
- drug sensitivity score [2]: 0
- drug sensitivity score [3]: 0

Compound: CC(C)Oc1ccc(C(=O)N[C@H](CNC(=O)CN(C)C)Cc2ccc(-c3cn4cccc([C@H](C)O)c4n3)cc2)cc1Cl
- drug sensitivity score [1]: 7.5 ± 2.4
- drug sensitivity score [2]: 10.2 ± 0.57
- drug sensitivity score [3]: 2 ± 0.14

Compound: COc1cc(N2CCC(N3CCN(C)CC3)CC2)ccc1Nc1ncnc(Nc2ccccc2S(=O)(=O)C(C)C)n1 [ASP3026]
- drug sensitivity score [1]: 3.9 ± 3.7
- drug sensitivity score [2]: 3.95 ± 1.6
- drug sensitivity score [3]: 1.05 ± 0.21

Compound: N#Cc1ccc2[nH]c(O)c(-c3ccc(CN4CCOCC4)cn3)c2c1 [AZD-1080]
- drug sensitivity score [1]: 0
- drug sensitivity score [2]: 0
- drug sensitivity score [3]: 0

Compound: CCCC(CCC)C(=O)O [Valproic acid]
- drug sensitivity score [1]: 0.75 ± 0.071
- drug sensitivity score [2]: 2.3 ± 0.28
- drug sensitivity score [3]: 0

Compound: Cc1cc(F)c(C(=O)Nc2cccc(-c3nncn3C(C)C)n2)cc1-n1cnc(C2CC2)c1 [Selonsertib]
- drug sensitivity score [1]: 0
- drug sensitivity score [2]: 0
- drug sensitivity score [3]: 0

Compound: C#Cc1cccc(Nc2ncnc3cc4c(cc23)OCCOCCOCCO4)c1 [Icotinib]
- drug sensitivity score [1]: 0
- drug sensitivity score [2]: 0
- drug sensitivity score [3]: 0

Compound: CCCN(CCC)C(=O)C1=Cc2ccc(-c3ccc(C(=O)N4CCCC4)cc3)cc2N=C(N)C1 [Motolimod]
- drug sensitivity score [1]: 1 ± 1.1
- drug sensitivity score [2]: 1.45 ± 0.35
- drug sensitivity score [3]: 0

Compound: O=C(NC1CCNCC1)c1n[nH]cc1NC(=O)c1c(Cl)cccc1Cl [AT7519]
- drug sensitivity score [1]: 13.6 ± 4
- drug sensitivity score [2]: 11.7 ± 3.6
- drug sensitivity score [3]: 2.8 ± 0.42

Compound: Cc1cc(Nc2ncc(Cl)c(Nc3ccccc3S(=O)(=O)C(C)C)n2)c(OC(C)C)cc1C1CCNCC1 [Ceritinib]
- drug sensitivity score [1]: 0.75 ± 1.1
- drug sensitivity score [2]: 0.8 ± 1.1
- drug sensitivity score [3]: 1.35 ± 0.78

Compound: COc1cccc(-c2ccc(NC(=O)C3=C(C(=O)O)CCC3)c(F)c2)c1 [Vidofludimus]
- drug sensitivity score [1]: 2.4 ± 1.7
- drug sensitivity score [2]: 2.2 ± 2.8
- drug sensitivity score [3]: 0

Compound: O=C(O)CC1CC(c2ccccc2)=NO1 (configuration not stated) [VGX-1027]
- drug sensitivity score [1]: 0.05 ± 0.071
- drug sensitivity score [2]: 0.9 ± 1.3
- drug sensitivity score [3]: 0
